Measurements published in US5856309A, “Amidinopyrroline derivatives, processes for their production and pharmaceutical agents containing these compounds” (Boehringer Mannheim GmbH, priority 1997, dated 1999).

Key:
[1] = target: isolated activated GpIIb/IIIa receptor (Homo sapiens, UniProt P05106+P08514); experiment: GpIIb/IIIa fibrinogen Elisa; details: inhibition of fibrinogen binding to coated GpIIb/IIIa receptor, optical density at 405 nm
Description: The GpIIb/IIIa fibrinogen Elisa is a modification of assays which are described in the following literature: Nachman, R. L. & Leung, L. L. K. (1982): J. Clin. Invest. 69: 263-269 and Wright, P. S. et al. (1993): Biochem. J. 293:263-267.
Microtiter plates were coated overnight with 2 μg/ml isolated activated GpIIb/IIIa receptor. After unbound receptor had been removed by washing several times the surface of the plates is blocked with 1% casein and it is washed again. The test substance is added at the required concentrations and the plates are incubated for 10 minutes while shaking. The natural ligand of the gpIIb/IIIa receptor, fibrinogen, is added. After incubating for 1 hour unbound fibrinogen is removed by washing several times and the bound fibrinogen is determined by means of a peroxidase-conjugated, anti-fibrinogen monoclonal antibody by measuring the optical density at 405 nm in an ELISA instrument. The inhibition of a fibrinogen-GpIIb/IIIa interaction results in a low optical density. The IC50 value was determined by a concentration/effect curve.

horse thrombin = experiment: Thrombin time in citrate plasma (sphere coagulometer); type: biochemical; details: citrate plasma of healthy donors, 37° C., control ca. 24 seconds
Description: A common test in clinical coagulation diagnostics is the thrombin time. This parameter detects the action of thrombin on fibrinogen and the formation of blood clots. Inhibitors of thrombin result in an increased thrombin time.
In order to obtain plasma 9 parts fresh blood from healthy donors are mixed with one part sodium citrate solution (0.11 mol/l) and centrifuged at ca. 3000 rpm for 10 min at room temperature. The plasma was removed by pipette and can be stored for ca. 8 h at room temperature.
200 ul citrate plasma was incubated for 2 min at 37° C. in a sphere coagulometer (KC10 from the Amelung Company). 10 ul dimethylsulfoxide (DMSO) or a solution of the active substance in DMSO was added to 190 ul preheated thrombin reagent (Boehringer Mannheim, GmbH; contains ca. 3 U/ml horse thrombin and 0.0125M Ca2+). A stopwatch was started when this 200 ul solution was added to the plasma and the time point at which coagulation starts was determined. […] [* the experiment was stopped after 5 minutes.]

[2] = target: T1, bovine pancreatic trypsin (Bos taurus, UniProt P00760); experiment: Inhibition of trypsin, kinetic measurement as described for thrombin; type: biochemical; details: measured as described for thrombin, read-out: inhibition constant Ki (trypsin)
T1 construct: purchased Sigma
T1 sequence (P00760 24-246): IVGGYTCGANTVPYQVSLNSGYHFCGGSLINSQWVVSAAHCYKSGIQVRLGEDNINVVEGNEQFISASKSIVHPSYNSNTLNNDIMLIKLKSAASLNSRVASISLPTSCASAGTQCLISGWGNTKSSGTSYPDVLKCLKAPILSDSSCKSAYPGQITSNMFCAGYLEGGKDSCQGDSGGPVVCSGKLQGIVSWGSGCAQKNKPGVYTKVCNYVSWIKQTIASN
Description: The kinetic measurements were carried out in 0.1M phosphate buffer which contained 0.2M sodium chloride and 0.5% polyethylene glycol 6000 at a pH=7.5 and 25° C. using the substrate H-(D)-Phe-Pro-Arg-pNA (S-2238 Kabi) and human thrombin (Sigma, specific activity=2150 NIH units/mg) in polystyrene semimicro-cuvettes in a total volume of 1 ml.
For this the reaction was started first by adding 0.03 NIH units thrombin to a 100 μM solution of the substrate and the active substance. In a second experiment substrate was added to a solution of thrombin and the active substance which had been incubated for 5 min. The increase of the concentration of p-nitro-anilide with time was monitored spectrophotometrically for 12 min at 405 nm (UV-VIS spectrophotometer Lambda-2 from the Perkin-Elmer Company). […] The inhibition constant Ki was determined as follows. […] The increase in absorbance at 405 nm caused by the formation of p-nitroanilide was monitored for a time period of 12 min. Measurement points (time versus absorbance) were transferred to a PC at intervals of 20 sec. The rates Vo (changes in absorbance per see; measurements without inhibitor) and Vi (measurements with inhibitor) were determined from the data by linear regression. […] From one measurement series (constant inhibitor concentration, variable substrate concentrations) Km' and Vmax were determined by a non-linear fit to the equation [formula] […]

Chain of isolated activated GpIIb/IIIa receptor (P08514 32-887 limits assumed): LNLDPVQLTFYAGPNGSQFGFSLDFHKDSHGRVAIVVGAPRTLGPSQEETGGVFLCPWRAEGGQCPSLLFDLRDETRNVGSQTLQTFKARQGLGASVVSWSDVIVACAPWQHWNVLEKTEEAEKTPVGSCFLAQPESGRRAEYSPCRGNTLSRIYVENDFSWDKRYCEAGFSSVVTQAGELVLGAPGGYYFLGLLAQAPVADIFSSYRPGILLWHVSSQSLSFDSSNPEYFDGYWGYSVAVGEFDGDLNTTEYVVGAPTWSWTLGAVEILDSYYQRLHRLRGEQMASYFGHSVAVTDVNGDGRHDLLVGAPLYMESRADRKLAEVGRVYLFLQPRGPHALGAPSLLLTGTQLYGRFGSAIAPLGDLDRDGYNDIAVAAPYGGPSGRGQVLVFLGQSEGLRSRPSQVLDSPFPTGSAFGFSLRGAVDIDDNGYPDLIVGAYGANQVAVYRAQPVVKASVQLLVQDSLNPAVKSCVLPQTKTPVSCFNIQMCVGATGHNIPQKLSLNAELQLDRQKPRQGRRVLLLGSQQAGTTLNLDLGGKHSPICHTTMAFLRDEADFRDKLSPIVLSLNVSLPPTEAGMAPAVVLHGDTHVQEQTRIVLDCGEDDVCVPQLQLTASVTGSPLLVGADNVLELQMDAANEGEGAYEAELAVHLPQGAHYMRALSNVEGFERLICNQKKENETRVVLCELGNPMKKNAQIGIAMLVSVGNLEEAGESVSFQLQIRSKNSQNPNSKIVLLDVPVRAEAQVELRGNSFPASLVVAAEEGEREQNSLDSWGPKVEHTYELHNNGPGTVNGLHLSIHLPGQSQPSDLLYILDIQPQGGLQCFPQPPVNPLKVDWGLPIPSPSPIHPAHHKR
Chain of isolated activated GpIIb/IIIa receptor (P08514 891-1039 partner limits assumed): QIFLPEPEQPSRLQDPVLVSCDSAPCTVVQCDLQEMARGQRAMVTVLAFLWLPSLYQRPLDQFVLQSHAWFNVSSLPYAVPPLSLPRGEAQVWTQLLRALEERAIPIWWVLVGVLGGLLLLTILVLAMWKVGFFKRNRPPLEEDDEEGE
Chain of isolated activated GpIIb/IIIa receptor (P05106 27-788): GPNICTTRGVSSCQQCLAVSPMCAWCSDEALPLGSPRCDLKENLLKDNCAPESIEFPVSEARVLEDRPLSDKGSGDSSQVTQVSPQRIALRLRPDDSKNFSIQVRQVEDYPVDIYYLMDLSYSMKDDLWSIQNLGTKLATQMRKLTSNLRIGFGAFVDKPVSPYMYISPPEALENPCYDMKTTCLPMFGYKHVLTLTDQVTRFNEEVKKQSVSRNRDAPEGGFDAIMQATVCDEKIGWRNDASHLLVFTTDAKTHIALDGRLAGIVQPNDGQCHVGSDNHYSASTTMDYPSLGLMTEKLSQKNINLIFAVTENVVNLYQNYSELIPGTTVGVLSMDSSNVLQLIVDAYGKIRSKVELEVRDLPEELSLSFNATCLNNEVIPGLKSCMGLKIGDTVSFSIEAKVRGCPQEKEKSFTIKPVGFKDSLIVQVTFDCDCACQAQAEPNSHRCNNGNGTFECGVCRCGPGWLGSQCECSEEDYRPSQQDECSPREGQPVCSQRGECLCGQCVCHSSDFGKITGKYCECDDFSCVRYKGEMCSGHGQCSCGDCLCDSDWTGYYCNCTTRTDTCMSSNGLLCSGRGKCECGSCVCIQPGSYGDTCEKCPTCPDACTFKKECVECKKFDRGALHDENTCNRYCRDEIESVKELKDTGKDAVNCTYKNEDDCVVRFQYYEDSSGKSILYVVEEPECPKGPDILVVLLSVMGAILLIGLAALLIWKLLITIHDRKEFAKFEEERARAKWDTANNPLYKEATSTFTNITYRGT

In the case of `N=C(N)N1CC=C(CC(NC(=O)OCC(Cl)(Cl)Cl)C(=O)NCC(=O)N[C@@H](CC(=O)O)C(=O)N[C@@H](CO)C(=O)O)C1` (stereo partly drawn) [Example 7, Troc-Ada-Gly-Asp-Ser], the IC50 [1] is reported as 14400 nM.

In the case of `N=C(N)N1CC=C(CC(NC(=O)OCC(Cl)(Cl)Cl)C(=O)NCC(=O)N[C@@H](CC(=O)O)C(=O)N[C@@H](Cc2c[nH]c3ccccc23)C(=O)O)C1` (stereo partly drawn) [Example 8, Troc-Ada-Gly-Asp-Trp], the IC50 [1] is reported as 400 nM.

`N=C(N)N1CC=C(CC(NC(=O)OCC(Cl)(Cl)Cl)C(=O)NCC(=O)N[C@@H](CC(=O)O)C(=O)N[C@@H](Cc2ccccc2)C(=O)O)C1` (stereo partly drawn) [Example 9, Troc-Ada-Gly-Asp-Phe] gave an IC50 [1] of 2300 nM.

Work on `N=C(N)N1CC=C(CC(N)C(=O)NCC(=O)N[C@@H](CC(=O)O)C(=O)N[C@@H](Cc2ccc(O)cc2)C(=O)O)C1` (stereo partly drawn) [Example 10, Ada-Gly-Asp-Tyr] yielded an IC50 [1] of 2400 nM.

For D-Pla-D-Phe-L-Choi-Adc [Example 1], the “increase of thrombin time” value (horse thrombin; test concentration 3.5 nM) was 5 s, the “increase of thrombin time” value (horse thrombin; test concentration 34 nM) was 65 s and the “increase of thrombin time” value (horse thrombin; test concentration 340 nM, experiment stopped after 5 minutes) was over 300 s. The Ki [2] was 100 nM.
